Measurements published in publication PMC5218480 (PLoS ONE, 2017).

Tested on: MV-4-11 cells
Experiment: Gene expression microarray analysis (Affymetrix PrimeView) and GSEA
Type: cell-based, human
Design: RFU PODN (11730768_x_at) / Fold change /veh PODN (11730768_x_at) / RFU LINC00158 (11744669_a_at) / Fold change /veh LINC00158 (11744669_a_at) / RFU DUSP10 (11751237_a_at) / Fold change /veh DUSP10 (11751237_a_at) / RFU ID3 (11757404_x_at) / Fold change /veh ID3 (11757404_x_at) / RFU PLEKHG5 (11737974_s_at) / Fold change /veh PLEKHG5 (11737974_s_at) / RFU LRRC4B (11730491_at) / Fold change /veh LRRC4B (11730491_at) / RFU GIMAP4 (11747438_a_at) / Fold change /veh GIMAP4 (11747438_a_at) / RFU KRT8 (11758183_x_at) / Fold change /veh KRT8 (11758183_x_at) / RFU CNN1 (11734310_a_at) / Fold change /veh CNN1 (11734310_a_at) / RFU VPS37D (11726825_at) / Fold change /veh VPS37D (11726825_at) / RFU C10orf10 (11716522_x_at) / Fold change /veh C10orf10 (11716522_x_at) / RFU KIR2DL2 /// KIR2DL4 /// KIR2DL5A /// KIR2DL5B /// KIR2DS1 /// KIR2DS2 /// KIR2DS3 /// KIR2DS4 /// KIR3DL3 /// KIR3DL3 /// KIR3DS1 (11738374_at) / Fold change /veh KIR2DL2 /// KIR2DL4 /// KIR2DL5A /// KIR2DL5B /// KIR2DS1 /// KIR2DS2 /// KIR2DS3 /// KIR2DS4 /// KIR3DL3 /// KIR3DL3 /// KIR3DS1 (11738374_at) / RFU C1QL1 (11718748_at) / Fold change /veh C1QL1 (11718748_at) / RFU TMPRSS4 (11747572_a_at) / Fold change /veh TMPRSS4 (11747572_a_at) / RFU HAMP (11756126_x_at) / Fold change /veh HAMP (11756126_x_at) / RFU RNFT2 (11725882_a_at) / Fold change /veh RNFT2 (11725882_a_at) / RFU NR4A2 (11747474_a_at) / Fold change /veh NR4A2 (11747474_a_at) / RFU ABCC12 (11746883_a_at) / Fold change /veh ABCC12 (11746883_a_at) / RFU TMEM136 (11760407_x_at) / Fold change /veh TMEM136 (11760407_x_at) / RFU CLDN22 /// WWC2 (11732394_at) / Fold change /veh CLDN22 /// WWC2 (11732394_at) / RFU HLA-DPB1 (11760878_x_at) / Fold change /veh HLA-DPB1 (11760878_x_at) / RFU SPINT1 (11716480_a_at) / Fold change /veh SPINT1 (11716480_a_at) / RFU GAP43 (11754022_s_at) / Fold change /veh GAP43 (11754022_s_at) / RFU A4GNT (11735810_at) / Fold change /veh A4GNT (11735810_at) / RFU PRB3 (11715151_x_at) / Fold change /veh PRB3 (11715151_x_at) / RFU TUBB4B (11761932_at) / Fold change /veh TUBB4B (11761932_at) / RFU CAPN14 (11732068_a_at) / Fold change /veh CAPN14 (11732068_a_at) / RFU TMCC2 (11721928_a_at) / Fold change /veh TMCC2 (11721928_a_at) / RFU IRGQ (11745062_a_at) / Fold change /veh IRGQ (11745062_a_at) / RFU FAM174B (11720279_a_at) / Fold change /veh FAM174B (11720279_a_at) / RFU TMPRSS4 (11748680_a_at) / Fold change /veh TMPRSS4 (11748680_a_at) / RFU FAM212B (11763350_a_at) / Fold change /veh FAM212B (11763350_a_at) / RFU PLEKHG5 (11743358_a_at) / Fold change /veh PLEKHG5 (11743358_a_at) / RFU ZSCAN30 (11745921_a_at) / Fold change /veh ZSCAN30 (11745921_a_at) / RFU CMKLR1 (11741424_a_at) / Fold change /veh CMKLR1 (11741424_a_at) / RFU LOC101060620 /// MAPK8IP1 (11723275_at) / Fold change /veh LOC101060620 /// MAPK8IP1 (11723275_at) / RFU SPTSSB (11747773_x_at) / Fold change /veh SPTSSB (11747773_x_at) / RFU PRSS12 (11739890_at) / Fold change /veh PRSS12 (11739890_at) / RFU BIN1 (11741810_x_at) / Fold change /veh BIN1 (11741810_x_at) / RFU WNT11 (11732464_a_at) / Fold change /veh WNT11 (11732464_a_at) / RFU C10orf10 (11716521_a_at) / Fold change /veh C10orf10 (11716521_a_at) / RFU C5orf56 (11738089_at) / Fold change /veh C5orf56 (11738089_at) / RFU CYB561 (11721691_x_at) / Fold change /veh CYB561 (11721691_x_at) / RFU ANKRD19P (11752326_a_at) / Fold change /veh ANKRD19P (11752326_a_at) / RFU OR2T12 /// OR2T33 /// OR2T8 (11738714_s_at) / Fold change /veh OR2T12 /// OR2T33 /// OR2T8 (11738714_s_at) / RFU VCAN (11748164_a_at) / Fold change /veh VCAN (11748164_a_at) / RFU JSRP1 (11732532_at) / Fold change /veh JSRP1 (11732532_at) / RFU KRTAP10-11 (11738290_x_at) / Fold change /veh KRTAP10-11 (11738290_x_at) / RFU MYO3A (11730013_a_at) / Fold change /veh MYO3A (11730013_a_at) / RFU EBF3 (11725865_a_at) / Fold change /veh EBF3 (11725865_a_at) / RFU CAMK2N1 (11719241_x_at) / Fold change /veh CAMK2N1 (11719241_x_at) / RFU C5orf56 (11738088_a_at) / Fold change /veh C5orf56 (11738088_a_at) / RFU OLFML3 (11715873_a_at) / Fold change /veh OLFML3 (11715873_a_at) / RFU LOC100653217 /// NTM (11731650_a_at) / Fold change /veh LOC100653217 /// NTM (11731650_a_at) / RFU MAPK11 (11762145_a_at) / Fold change /veh MAPK11 (11762145_a_at) / RFU FIZ1 (11724087_x_at) / Fold change /veh FIZ1 (11724087_x_at) / RFU OASL (11726364_x_at) / Fold change /veh OASL (11726364_x_at) / RFU SOX15 (11748057_x_at) / Fold change /veh SOX15 (11748057_x_at) / RFU CD79A (11719716_a_at) / Fold change /veh CD79A (11719716_a_at) / RFU HIST1H1D (11736915_at) / Fold change /veh HIST1H1D (11736915_at) / RFU CASKIN2 (11723855_a_at) / Fold change /veh CASKIN2 (11723855_a_at) / RFU LOC730098 (11760151_x_at) / Fold change /veh LOC730098 (11760151_x_at) / RFU OR4N2 (11742367_at) / Fold change /veh OR4N2 (11742367_at) / RFU PRRT2 (11749266_a_at) / Fold change /veh PRRT2 (11749266_a_at) / RFU SNX32 (11753110_a_at) / Fold change /veh SNX32 (11753110_a_at) / RFU CDHR5 (11726645_a_at) / Fold change /veh CDHR5 (11726645_a_at) / RFU RCAN1 (11760418_a_at) / Fold change /veh RCAN1 (11760418_a_at) / RFU FAM167A (11723789_a_at) / Fold change /veh FAM167A (11723789_a_at) / RFU FAM26E (11764081_at) / Fold change /veh FAM26E (11764081_at) / RFU ISYNA1 (11749810_s_at) / Fold change /veh ISYNA1 (11749810_s_at) / RFU ACY1 (11761880_at) / Fold change /veh ACY1 (11761880_at) / RFU 11764098_at / Fold change /veh 11764098_at / RFU SAMD14 (11745864_x_at) / Fold change /veh SAMD14 (11745864_x_at) / RFU NPB (11741838_a_at) / Fold change /veh NPB (11741838_a_at) / RFU TMPRSS6 (11731388_a_at) / Fold change /veh TMPRSS6 (11731388_a_at) / RFU KRTAP10-2 (11738614_at) / Fold change /veh KRTAP10-2 (11738614_at) / RFU ARHGAP8 /// PRR5-ARHGAP8 (11727945_x_at) / Fold change /veh ARHGAP8 /// PRR5-ARHGAP8 (11727945_x_at) / RFU KRTAP5-7 /// NADSYN1 (11734609_at) / Fold change /veh KRTAP5-7 /// NADSYN1 (11734609_at) / RFU RASL12 (11751679_a_at) / Fold change /veh RASL12 (11751679_a_at) / RFU CDKN2B (11736163_a_at) / Fold change /veh CDKN2B (11736163_a_at) / RFU PRF1 (11729649_at) / Fold change /veh PRF1 (11729649_at) / RFU, ZNF638 /// ZNF638-IT1 / Fold change vs veh, ZNF638 /// ZNF638-IT1 / RFU, PANK3 / Fold change vs veh, PANK3 / RFU, SH3YL1 / Fold change vs veh, SH3YL1 / RFU, ZEB2 / Fold change vs veh, ZEB2 / RFU, NRIP1 / Fold change vs veh, NRIP1 / RFU, PTTG1IP / Fold change vs veh, PTTG1IP / RFU, CAPN2 / Fold change vs veh, CAPN2 / RFU, MED14 / Fold change vs veh, MED14 / RFU, SNORA58 / Fold change vs veh, SNORA58 / RFU, C1orf63 / Fold change vs veh, C1orf63 / RFU, LRRFIP1 / Fold change vs veh, LRRFIP1 / RFU, NDUFAF7 / Fold change vs veh, NDUFAF7 / RFU, SLC12A2 / Fold change vs veh, SLC12A2 / RFU, IBTK / Fold change vs veh, IBTK / RFU, ESF1 / Fold change vs veh, ESF1 / Fold change vs veh, TMEM50B / RFU, TAOK1 / Fold change vs veh, TAOK1 / RFU, ACBD3 / Fold change vs veh, ACBD3 / RFU, TMA16 / Fold change vs veh, TMA16 / RFU, RWDD3 / Fold change vs veh, RWDD3 / RFU, BCAT1 / Fold change vs veh, BCAT1 / RFU, EDEM3 / Fold change vs veh, EDEM3 / RFU, TMEM33 / Fold change vs veh, TMEM33 / RFU, WDR75 / Fold change vs veh, WDR75 / RFU, AHCTF1 / Fold change vs veh, AHCTF1 / RFU, TFRC / Fold change vs veh, TFRC / RFU, ZDHHC17 / Fold change vs veh, ZDHHC17 / RFU, NOM1 / Fold change vs veh, NOM1 / RFU, ARL8B / Fold change vs veh, ARL8B / RFU, ZBTB11 / Fold change vs veh, ZBTB11 / RFU, TAMM41 / Fold change vs veh, TAMM41 / RFU, KIAA1704 /// LOC100996395 / Fold change vs veh, KIAA1704 /// LOC100996395 / RFU, ING1 / Fold change vs veh, ING1 / RFU, TRMT61B / Fold change vs veh, TRMT61B / RFU, FUBP3 / Fold change vs veh, FUBP3 / RFU, TP53 / Fold change vs veh, TP53 / RFU, TNKS2 / Fold change vs veh, TNKS2 / RFU, ZFP14 / Fold change vs veh, ZFP14 / RFU, ACTR2 / Fold change vs veh, ACTR2 / RFU, PPP3R1 / Fold change vs veh, PPP3R1 / RFU, PIK3R1 / Fold change vs veh, PIK3R1 / RFU, HNRNPA1 / Fold change vs veh, HNRNPA1 / RFU, RNF170 / Fold change vs veh, RNF170 / RFU, ZNF28 / Fold change vs veh, ZNF28 / RFU, RNGTT / Fold change vs veh, RNGTT / RFU, OGT / Fold change vs veh, OGT / RFU, BRD1 / Fold change vs veh, BRD1 / RFU, MARS / Fold change vs veh, MARS / RFU, ZNF655 / Fold change vs veh, ZNF655 / RFU, FAHD1 / Fold change vs veh, FAHD1 / RFU, BDP1 / Fold change vs veh, BDP1 / RFU, LRRCC1 / Fold change vs veh, LRRCC1 / RFU, ARID1A / Fold change vs veh, ARID1A / RFU, ZNF146 / Fold change vs veh, ZNF146 / RFU, ZNF330 / Fold change vs veh, ZNF330 / RFU, GPN3 / Fold change vs veh, GPN3 / RFU, C9orf123 / Fold change vs veh, C9orf123 / RFU, N4BP2L2 / Fold change vs veh, N4BP2L2 / RFU, ARFIP1 / Fold change vs veh, ARFIP1 / RFU, FAM179B / Fold change vs veh, FAM179B / RFU, BCL10 / Fold change vs veh, BCL10 / RFU, UHRF1BP1L / Fold change vs veh, UHRF1BP1L / RFU, BET1 / Fold change vs veh, BET1 / RFU, CNOT2 / Fold change vs veh, CNOT2 / RFU, ZNF268 / Fold change vs veh, ZNF268 / Fold change vs veh, ZNF507 / RFU, DGCR2 / Fold change vs veh, DGCR2 / RFU, WDSUB1 / Fold change vs veh, WDSUB1 / Fold change vs veh, HSP90B1 /// MIR3652 / RFU, ADSS / Fold change vs veh, ADSS / RFU, GK / Fold change vs veh, GK / RFU, ZNF148 / Fold change vs veh, ZNF148 / RFU, TAF9 / Fold change vs veh, TAF9 / RFU, SLC1A5 / Fold change vs veh, SLC1A5 / RFU, SLMO2 / Fold change vs veh, SLMO2 / RFU, ABCC4 / Fold change vs veh, ABCC4 / RFU, LOC101060439 /// RAP1B / Fold change vs veh, LOC101060439 /// RAP1B / RFU, RFX7 / Fold change vs veh, RFX7 / RFU, GTPBP10 / Fold change vs veh, GTPBP10 / RFU, CNEP1R1 / Fold change vs veh, CNEP1R1 / RFU, BIVM-ERCC5 /// ERCC5 / Fold change vs veh, BIVM-ERCC5 /// ERCC5 / RFU, ILF3 / Fold change vs veh, ILF3 / RFU 11762660_at / Fold change /veh 11762660_at / RFU VCAN (11757783_s_at) / Fold change /veh VCAN (11757783_s_at) / RFU DDX43 (11728927_at) / Fold change /veh DDX43 (11728927_at) / RFU KRT8 (11758188_x_at) / Fold change /veh KRT8 (11758188_x_at) / RFU NKD1 (11759106_at) / Fold change /veh NKD1 (11759106_at) / RFU SRD5A1 (11742802_a_at) / Fold change /veh SRD5A1 (11742802_a_at) / RFU TPSAB1 /// TPSB2 (11721975_s_at) / Fold change /veh TPSAB1 /// TPSB2 (11721975_s_at) / RFU GSTM3 (11746129_a_at) / Fold change /veh GSTM3 (11746129_a_at) / RFU IL23R (11737362_x_at) / Fold change /veh IL23R (11737362_x_at) / RFU TMEM51 (11727254_a_at) / Fold change /veh TMEM51 (11727254_a_at) / RFU PIWIL2 (11732686_x_at) / Fold change /veh PIWIL2 (11732686_x_at) / RFU ORM1 (11744905_x_at) / Fold change /veh ORM1 (11744905_x_at) / RFU CCDC152 (11743942_at) / Fold change /veh CCDC152 (11743942_at) / RFU ECM1 (11717891_a_at) / Fold change /veh ECM1 (11717891_a_at) / RFU IL23R (11748794_a_at) / Fold change /veh IL23R (11748794_a_at) / RFU TNFAIP8L3 (11732012_x_at) / Fold change /veh TNFAIP8L3 (11732012_x_at) / RFU MBOAT4 (11741988_at) / Fold change /veh MBOAT4 (11741988_at) / RFU 11764193_at / Fold change /veh 11764193_at / RFU TMEM53 (11763286_at) / Fold change /veh TMEM53 (11763286_at) / RFU MAGEB2 (11727129_at) / Fold change /veh MAGEB2 (11727129_at) / RFU TMEM200A (11744735_a_at) / Fold change /veh TMEM200A (11744735_a_at) / RFU CCDC152 (11751479_a_at) / Fold change /veh CCDC152 (11751479_a_at) / RFU FAM211A (11726209_a_at) / Fold change /veh FAM211A (11726209_a_at) / RFU RGS16 (11746705_a_at) / Fold change /veh RGS16 (11746705_a_at) / RFU VCAN (11755009_s_at) / Fold change /veh VCAN (11755009_s_at) / RFU RHOB (11743442_s_at) / Fold change /veh RHOB (11743442_s_at) / RFU RGS16 (11720943_a_at) / Fold change /veh RGS16 (11720943_a_at) / RFU RGS16 (11720944_at) / Fold change /veh RGS16 (11720944_at) / RFU, VPS4B / Fold change vs veh, VPS4B / RFU, CREB1 / Fold change vs veh, CREB1 / RFU, DNAJC13 / Fold change vs veh, DNAJC13 / RFU, GNAQ / Fold change vs veh, GNAQ / RFU, CDK5R1 / Fold change vs veh, CDK5R1 / RFU, ZRANB3 / Fold change vs veh, ZRANB3 / RFU, CUL4A / Fold change vs veh, CUL4A / RFU, CCNY / Fold change vs veh, CCNY / RFU, UFL1 / Fold change vs veh, UFL1 / RFU, COG3 / Fold change vs veh, COG3 / RFU, DIAPH2 / Fold change vs veh, DIAPH2 / RFU, SKA2 / Fold change vs veh, SKA2 / RFU, AFF3 / Fold change vs veh, AFF3 / RFU, LMF1 / Fold change vs veh, LMF1 / RFU, IPO11 / Fold change vs veh, IPO11 / RFU, DFFB / Fold change vs veh, DFFB / RFU, FOXP1 / Fold change vs veh, FOXP1 / RFU, CARD8 / Fold change vs veh, CARD8 / RFU, STRN3 / Fold change vs veh, STRN3 / RFU, ADK / Fold change vs veh, ADK / RFU, RASSF2 / Fold change vs veh, RASSF2 / RFU, WIPF1 / Fold change vs veh, WIPF1 / RFU, LARP1B / Fold change vs veh, LARP1B / RFU, RASA1 / Fold change vs veh, RASA1 / RFU, RB1 / Fold change vs veh, RB1 / RFU, PPFIA1 / Fold change vs veh, PPFIA1 / RFU, MAT2A / Fold change vs veh, MAT2A / RFU, CCT5 / Fold change vs veh, CCT5 / RFU, WDR92 / Fold change vs veh, WDR92 / RFU, CUX1 / Fold change vs veh, CUX1 / RFU, TTC7A / Fold change vs veh, TTC7A / RFU, TMEM135 / Fold change vs veh, TMEM135 / RFU, DEPTOR / Fold change vs veh, DEPTOR / RFU, CPM / Fold change vs veh, CPM / RFU, DNAJB6 / Fold change vs veh, DNAJB6 / RFU, CACNA2D3 / Fold change vs veh, CACNA2D3 / RFU, DTX4 / Fold change vs veh, DTX4 / RFU, TFCP2 / Fold change vs veh, TFCP2 / RFU, GMCL1 /// GMCL1P1 / Fold change vs veh, GMCL1 /// GMCL1P1 / RFU, AEBP2 / Fold change vs veh, AEBP2 / RFU, SNHG1 /// SNORD22 /// SNORD25 /// SNORD26 /// SNORD27 /// SNORD28 /// SNORD29 /// SNORD31 / Fold change vs veh, SNHG1 /// SNORD22 /// SNORD25 /// SNORD26 /// SNORD27 /// SNORD28 /// SNORD29 /// SNORD31 / Fold change (Aza/veh), C12orf56 (ProbeSet 11735607_a_at) / Fold change (ACY-1035/veh), C12orf56 (ProbeSet 11735607_a_at) / Fold change (Aza/veh), FGFR1OP (ProbeSet 11751329_s_at) / Fold change (ACY-1035/veh), FGFR1OP (ProbeSet 11751329_s_at) / Fold change (Aza/veh), VPS36 (ProbeSet 11739960_a_at) / Fold change (ACY-1035/veh), VPS36 (ProbeSet 11739960_a_at) / RFU SYPL1 (11715823_x_at) / Fold change /veh SYPL1 (11715823_x_at) / RFU IGFBP7 (11715501_s_at) / Fold change /veh IGFBP7 (11715501_s_at) / RFU REEP3 (11722064_at) / Fold change /veh REEP3 (11722064_at) / RFU IGLL1 (11728026_x_at) / Fold change /veh IGLL1 (11728026_x_at): dose or concentration left out as unconfirmed
Conditions: MV-4-11 cells, 48 hours

Nc1ncn([C@@H]2O[C@H](CO)[C@@H](O)[C@H]2O)c(=O)n1 [azacitidine]
RFU LINC00158 (11744669_a_at): 7.44 RFU
